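1) Cells in 96-well plates. 2) Compound, 48 h, 5 concentrations. 3) Linear interpolation between surrounding doses. 4) Unreached endpoint = highest concentration. GI50 = concentration required for 50% inhibition of growth. TGI: total growth inhibition.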
Key:
Assay in all cases: NCI tumour cell line growth inhibition, 48 h
HOP-92 NSCLC = test system: HOP-92 NSCLC
CAKI-1 renal = test system: CAKI-1 renal
OVCAR-4 ovarian = test system: OVCAR-4 ovarian
786-0 renal = test system: 786-0 renal
K-562 leukemia = test system: K-562 leukemia
UO-31 renal = test system: UO-31 renal
SK-OV-3 ovarian = test system: SK-OV-3 ovarian
HCT-15 colon = test system: HCT-15 colon
SNB-19 CNS = test system: SNB-19 CNS
OVCAR-8 ovarian = test system: OVCAR-8 ovarian
KM12 colon = test system: KM12 colon
RPMI-8226 leukemia = test system: RPMI-8226 leukemia
HCT-116 colon = test system: HCT-116 colon
SF-268 CNS = test system: SF-268 CNS
SK-MEL-28 melanoma = test system: SK-MEL-28 melanoma
OVCAR-5 ovarian = test system: OVCAR-5 ovarian
OVCAR-3 ovarian = test system: OVCAR-3 ovarian
SR leukemia = test system: SR leukemia
SN12C renal = test system: SN12C renal
EKVX NSCLC = test system: EKVX NSCLC
BT-549 breast = test system: BT-549 breast
HCC-2998 colon = test system: HCC-2998 colon
SW-620 colon = test system: SW-620 colon
T-47D breast = test system: T-47D breast
ACHN renal = test system: ACHN renal
M14 melanoma = test system: M14 melanoma
CCRF-CEM leukemia = test system: CCRF-CEM leukemia
IGROV1 ovarian = test system: IGROV1 ovarian
A549 NSCLC = test system: A549 NSCLC
NCI-H522 lung = test system: NCI-H522 lung
NCI-H23 lung = test system: NCI-H23 lung
HOP-62 NSCLC = test system: HOP-62 NSCLC
MOLT-4 leukemia = test system: MOLT-4 leukemia
SF-539 CNS = test system: SF-539 CNS
SK-MEL-5 melanoma = test system: SK-MEL-5 melanoma
MCF7 breast = test system: MCF7 breast
NCI-H226 lung = test system: NCI-H226 lung
SNB-75 CNS = test system: SNB-75 CNS
MDA-MB-231 breast = test system: MDA-MB-231 breast
NCI/ADR-RES ovarian = test system: NCI/ADR-RES ovarian
HT29 colon = test system: HT29 colon
SF-295 CNS = test system: SF-295 CNS
A498 renal = test system: A498 renal
PC-3 prostate = test system: PC-3 prostate
U251 CNS = test system: U251 CNS
LOX IMVI melanoma = test system: LOX IMVI melanoma
COLO 205 colon = test system: COLO 205 colon
HL-60(TB) leukemia = test system: HL-60(TB) leukemia
MDA-MB-435 = test system: MDA-MB-435
SK-MEL-2 melanoma = test system: SK-MEL-2 melanoma
UACC-257 melanoma = test system: UACC-257 melanoma
HS 578T breast = test system: HS 578T breast
DU-145 prostate = test system: DU-145 prostate
NCI-H460 lung = test system: NCI-H460 lung

CC(=O)OCC1OC(n2c(=S)n(-c3ccccc3)c(=O)c3ccccc32)C(OC(C)=O)C(OC(C)=O)C1OC(C)=O (stereo not given)
TGI (HOP-92 NSCLC): > 100 µM | TGI (CAKI-1 renal): > 100 µM | TGI (OVCAR-4 ovarian): > 100 µM

CN(C)CCOc1ccc2[nH]c(C(=O)N3CC(CCl)c4ccc(N)cc43)cc2c1 (stereo not given)
TGI (786-0 renal): 5.48 µM | TGI (K-562 leukemia): > 100 µM | TGI (UO-31 renal): > 40.7 µM | TGI (SK-OV-3 ovarian): > 100 µM | TGI (HCT-15 colon): 20.7 µM | TGI (SNB-19 CNS): 21.8 µM | TGI (OVCAR-8 ovarian): > 35.8 µM | TGI (KM12 colon): 0.294 µM | TGI (RPMI-8226 leukemia): 1.14 µM | TGI (HOP-92 NSCLC): 4.18 µM | TGI (HCT-116 colon): 12.9 µM | TGI (SF-268 CNS): 1.01 µM | TGI (SK-MEL-28 melanoma): 3.21 µM | TGI (OVCAR-5 ovarian): 18.2 µM | TGI (OVCAR-3 ovarian): 0.653 µM | TGI (SR leukemia): > 100 µM | TGI (SN12C renal): > 22.3 µM | TGI (EKVX NSCLC): 5.92 µM | TGI (CAKI-1 renal): > 100 µM | TGI (BT-549 breast): 0.612 µM | TGI (HCC-2998 colon): 0.823 µM | TGI (SW-620 colon): > 100 µM | TGI (T-47D breast): > 100 µM | TGI (ACHN renal): 1.07 µM | TGI (M14 melanoma): 1.39 µM | TGI (CCRF-CEM leukemia): 0.975 µM | TGI (IGROV1 ovarian): > 67.6 µM | TGI (A549 NSCLC): > 40.3 µM | TGI (OVCAR-4 ovarian): 0.46 µM | TGI (NCI-H522 lung): 0.0683 µM | TGI (NCI-H23 lung): 0.341 µM | TGI (HOP-62 NSCLC): 0.69 µM | TGI (MOLT-4 leukemia): 0.0565 µM | TGI (SF-539 CNS): > 100 µM | TGI (SK-MEL-5 melanoma): 0.261 µM

O=[N+]([O-])c1cccc([I+]c2ccccc2)c1
GI50 (786-0 renal): 13 µM | TGI (786-0 renal): 29.9 µM | GI50 (K-562 leukemia): 3.26 µM | TGI (K-562 leukemia): 32.1 µM | GI50 (UO-31 renal): 8.71 µM | TGI (UO-31 renal): 85.5 µM | GI50 (SK-OV-3 ovarian): 13.8 µM | TGI (SK-OV-3 ovarian): 27.5 µM | GI50 (HCT-15 colon): 5.35 µM | TGI (HCT-15 colon): 30.1 µM | GI50 (MCF7 breast): 8.29 µM | TGI (MCF7 breast): 41.5 µM | GI50 (NCI-H226 lung): 7.12 µM | TGI (NCI-H226 lung): 21.3 µM | GI50 (SNB-19 CNS): 13.4 µM | TGI (SNB-19 CNS): 26.5 µM | GI50 (OVCAR-8 ovarian): 4.37 µM | TGI (OVCAR-8 ovarian): 17.6 µM | GI50 (KM12 colon): 12 µM | TGI (KM12 colon): 26.1 µM | GI50 (SNB-75 CNS): 6.56 µM | TGI (SNB-75 CNS): 20.8 µM | GI50 (RPMI-8226 leukemia): 4.09 µM | TGI (RPMI-8226 leukemia): 30.7 µM | GI50 (MDA-MB-231 breast): 14.8 µM | TGI (MDA-MB-231 breast): 33.6 µM | GI50 (NCI/ADR-RES ovarian): 47.9 µM | TGI (NCI/ADR-RES ovarian): > 100 µM | GI50 (HT29 colon): 11.9 µM | TGI (HT29 colon): 31.2 µM | GI50 (HCT-116 colon): 7.05 µM | TGI (HCT-116 colon): 24.2 µM | GI50 (SF-268 CNS): 7.3 µM | TGI (SF-268 CNS): 21.2 µM | GI50 (SK-MEL-28 melanoma): 10.5 µM | TGI (SK-MEL-28 melanoma): 23.2 µM | GI50 (OVCAR-5 ovarian): 17.7 µM | TGI (OVCAR-5 ovarian): 38.4 µM | GI50 (OVCAR-3 ovarian): 11.3 µM | TGI (OVCAR-3 ovarian): 26.8 µM | GI50 (SR leukemia): 3.16 µM | TGI (SR leukemia): 25.9 µM | GI50 (SF-295 CNS): 10.9 µM | TGI (SF-295 CNS): 25.6 µM | GI50 (SN12C renal): 10.4 µM | TGI (SN12C renal): 22.8 µM | GI50 (A498 renal): 10.4 µM | TGI (A498 renal): 28.4 µM | GI50 (CAKI-1 renal): 3.42 µM | TGI (CAKI-1 renal): 49 µM | GI50 (PC-3 prostate): 7.78 µM | TGI (PC-3 prostate): 26.1 µM | GI50 (BT-549 breast): 10.5 µM | TGI (BT-549 breast): 23.1 µM | GI50 (SW-620 colon): 6.42 µM | TGI (SW-620 colon): 26.7 µM | GI50 (T-47D breast): 8.28 µM | TGI (T-47D breast): 33.4 µM | GI50 (U251 CNS): 6.39 µM | TGI (U251 CNS): 20.3 µM | GI50 (LOX IMVI melanoma): 6.21 µM | TGI (LOX IMVI melanoma): 20.1 µM | GI50 (ACHN renal): 19.6 µM | TGI (ACHN renal): > 100 µM | GI50 (COLO 205 colon): 10.1 µM | TGI (COLO 205 colon): 33.6 µM | GI50 (M14 melanoma): 11.1 µM | TGI (M14 melanoma): 33.5 µM | GI50 (CCRF-CEM leukemia): 5.27 µM | TGI (CCRF-CEM leukemia): 90.7 µM | GI50 (HL-60(TB) leukemia): 4.93 µM | TGI (HL-60(TB) leukemia): 41.2 µM | GI50 (MDA-MB-435): 11.6 µM | TGI (MDA-MB-435): 29.2 µM | GI50 (IGROV1 ovarian): 5.29 µM | TGI (IGROV1 ovarian): 27 µM | GI50 (A549 NSCLC): 3.46 µM | TGI (A549 NSCLC): 24.1 µM | GI50 (SK-MEL-2 melanoma): 17.8 µM | TGI (SK-MEL-2 melanoma): 35.2 µM | GI50 (UACC-257 melanoma): 12.1 µM | TGI (UACC-257 melanoma): 28 µM | GI50 (HS 578T breast): 10.1 µM | TGI (HS 578T breast): 68.2 µM | GI50 (OVCAR-4 ovarian): 7.13 µM | TGI (OVCAR-4 ovarian): 36 µM | GI50 (NCI-H522 lung): 11.3 µM | TGI (NCI-H522 lung): 23.5 µM | GI50 (NCI-H23 lung): 10.9 µM | TGI (NCI-H23 lung): 31.2 µM | GI50 (HOP-62 NSCLC): 5.19 µM | TGI (HOP-62 NSCLC): 18.8 µM | GI50 (DU-145 prostate): 11.1 µM | TGI (DU-145 prostate): 24.3 µM | GI50 (MOLT-4 leukemia): 3.4 µM | TGI (MOLT-4 leukemia): 39 µM | GI50 (NCI-H460 lung): 3.56 µM | TGI (NCI-H460 lung): 25.3 µM | GI50 (SF-539 CNS): 10.8 µM | TGI (SF-539 CNS): 24.3 µM | GI50 (SK-MEL-5 melanoma): 2.27 µM | TGI (SK-MEL-5 melanoma): 10.8 µM

Reference: PubChem BioAssay (NCI)
